Measured values from patent US12173018B2, “Penicillin-binding protein inhibitors” (priority 2018, dated 2024).
Converted amounts (≈) assume the structure as drawn. Where two headings read alike, the source gives them in different places.

Columns and labels:
[1] = tested on: E. coli AG100; assay: Broth microdilution MIC, E. coli AG100 (wild-type parent); type: cell-based; details: Escherichia coli; wild-type parent E. coli AG100, broth microdilution; read-out: MIC E. coli AG100
Outline: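 Broth microdilution in cation-supplemented Mueller-Hinton broth, 2-fold serial compound dilutions, inoculum 5×10^5 CFU/mL from 3-5 h log culture.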

[2] = tested on: K. pneumoniae 848844; assay: microbe, parasite or virus in culture; type: cell-based, Klebsiella pneumoniae; details: Klebsiella pneumoniae; K. pneumoniae 848844 producing SHV-11 and KPC-2; read-out: MIC K. pneumoniae 848844
Outline: (§1)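 Broth microdilution MICs followed CLSI methods in cation-supplemented Mueller-Hinton broth, with 2-fold serial compound dilutions. Log-phase cultures grown 3–5 h were added to a starting inoculum of 5×10^5 CFU/mL and incubated 16–20 h at 37 °C. The MIC was read visually as the lowest concentration with no growth.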

[3] = tested on: N. gonorrhoeae ATCC 49226; assay: Liquid broth MIC, N. gonorrhoeae ATCC 49226; type: cell-based; details: Neisseria gonorrhoeae, ATCC49226; N. gonorrhoeae ATCC 49226, liquid broth; read-out: Minimum Inhibitory Concentration, N. gonorrhoeae ATCC 49226
Outline: (§2)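 Broth microdilution in wild-type strains: colonies from GC agar with 1% Kellogg's supplement suspended in GC broth, inoculated at 5×10^5 CFU/mL into 2-fold compound dilutions. Plates incubated 40-42 hours at 36° C., 5% CO2; MIC read visually as lowest concentration with no growth.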

[4] = tested on: P. aeruginosa PAO1; assay: Broth microdilution MIC, P. aeruginosa PAO1; type: cell-based; details: Pseudomonas aeruginosa
Experimental: (§3) To determine the ability of test compounds to potentiate the inhibition of the growth of bacterial strains, classic cell based broth microdilution minimum inhibitory concentration (MIC) assays were employed. MIC assays are performed according to CLSI methods except where otherwise noted (CLSI, 2011 and CLSI, 2009). The reference type strain E. coli ATCC 25922, the wild-type parent strain E. coli AG100, the hyper-permeable E. coli 901C and E. coli D22 and the E. coli AG100A strain lacking the acrAB efflux pump encoding genes were used to determine the ability of the PBP inhibitors to penetrate the outer membrane of gram-negative bacteria and inhibit bacterial growth. […] The P. aeruginosa PAO1, P. aeruginosa ATCC 27853 and A. baumannii ATCC 19606, along with the hyper-permeable P. aeruginosa ATCC 35151 and an engineered efflux pump-compromised strain of P. aeruginosa (ΔmexAB-oprM) were used to determine the ability of PBP inhibitors to penetrate the outer membrane of P. aeruginosa and A. baumannii and assess antibacterial activity against these important gram-negative organisms.
(§4) Briefly, cryo-preserved bacterial cultures of challenge strains are streaked for isolation on appropriate agar medium, in this case Mueller Hinton II agar. Following incubation to allow growth of the colonies, plates are sealed with parafilm and stored refrigerated for up to two weeks. For preparation of assay inoculum and to ensure low variability, at least 5 colonies are picked from the agar plates with an inoculating loop and aseptically transferred to a culture tube containing 3 mL of Mueller-Hinton Broth (supplemented with divalent cations to required levels based on Manufacturers' certification). The broth culture is grown for 3-5 hours at 37° C. with shaking at 200 rpm. Meanwhile, 2-fold serial dilutions of test compounds are conducted in a 96 well plate with a final volume of 75 μL per well at 2-fold the final desired concentration. After the dilution plates are set up the growing cultures are then diluted in a cuvette containing MH II broth and the optical density is measured at 600 nm. The Inoculum is diluted such that 75 μL of this culture in Mueller-Hinton Broth results in a starting bacterial concentration of 5×10^5 CFU/mL when added to the dilution plates. The plates are incubated for 16-20 hours at 37° C. The MIC values are read visually as the lowest concentration well with no bacterial growth.

[5] = tested on: A. baumannii ATCC 19606; assay: Broth microdilution MIC, A. baumannii ATCC 19606; type: cell-based; details: Acinetobacter baumannii
Experimental: as §3, §4

[6] = tested on: P. aeruginosa (ΔmexAB-oprM); assay: microbe, parasite or virus in culture; type: cell-based; details: Pseudomonas aeruginosa, read-out: MIC P. aeruginosa ΔmexAB-OprM
Outline: as §1

[7] = tested on: K. pneumoniae UMM; assay: microbe, parasite or virus in culture; type: cell-based; details: Klebsiella pneumoniae; K. pneumoniae UMM producing SHV-5 and KPC-2; read-out: MIC K. pneumoniae UMM
Outline: as §1

[8] = tested on: P. aeruginosa ATCC 35151; assay: microbe, parasite or virus in culture; type: cell-based; details: Pseudomonas aeruginosa, ATCC35151; hyper-permeable P. aeruginosa ATCC 35151; read-out: MIC P. aeruginosa ATCC 35151
Outline: as §1

[9] = tested on: E. coli 901C; assay: microbe, parasite or virus in culture; type: cell-based; details: Escherichia coli; hyper-permeable E. coli 901C, broth microdilution; read-out: MIC E. coli 901C
Outline: as §1

[10] = tested on: K. pneumoniae SI-117; assay: microbe, parasite or virus in culture; type: cell-based; details: Klebsiella pneumoniae, SI117, read-out: MIC K. pneumoniae SI-117
Outline: as §1

[11] = tested on: E. coli AG100A; assay: microbe, parasite or virus in culture; type: cell-based; details: Escherichia coli, read-out: MIC E. coli AG100A
Outline: as §1

[12] = tested on: E. coli D22; assay: microbe, parasite or virus in culture; type: cell-based; details: Escherichia coli; hyper-permeable E. coli D22, broth microdilution; read-out: MIC E. coli D22
Outline: as §1

[13] = tested on: E. coli ATCC 25922; assay: Broth microdilution MIC, E. coli ATCC 25922; type: cell-based; details: Escherichia coli
Outline: as §1

[14] = tested on: N. gonorrhoeae FA19; assay: Liquid broth MIC, N. gonorrhoeae FA19; type: cell-based; details: Neisseria gonorrhoeae; N. gonorrhoeae FA19, liquid broth; read-out: Minimum Inhibitory Concentration, N. gonorrhoeae FA19
Outline: as §2

[15] = tested on: N. gonorrhoeae WHO F; assay: Liquid broth MIC, N. gonorrhoeae WHO F; type: cell-based; details: Neisseria gonorrhoeae; N. gonorrhoeae WHO F, liquid broth; read-out: Minimum Inhibitory Concentration, N. gonorrhoeae WHO F
Outline: as §2

[16] = tested on: N. gonorrhoeae FA1090; assay: Liquid broth MIC, N. gonorrhoeae FA1090; type: cell-based; details: Neisseria gonorrhoeae; N. gonorrhoeae FA1090, liquid broth; read-out: Minimum Inhibitory Concentration, N. gonorrhoeae FA1090
Outline: as §2

[17] = tested on: engineered strain of Escherichia coli harboring CTX-M15; assay: microbe, parasite or virus in culture; type: cell-based; details: Escherichia coli, read-out: Microbiological Activity (MIC in mg/L), E. coli DH5α/pLBII-CTX-M15, engineered strain producing CTX-M15
[18] = target: E. coli PBP3 (Escherichia coli (strain K12), UniProt P0AD68); assay: E. coli PBP3 Bocillin-FL fluorescence polarization competition binding assay
Outline: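 Purified E. coli PBP (1.5 μM final) competed with inhibitor (0-1000 μM) for Bocillin-FL (0.1 μM final) in 50 mM Hepes pH 8.0, 300 mM NaCl, 5% glycerol. Fluorescence polarization (ex 490/em 520 nm) was read continuously for 60 min after Bocillin-FL addition. EC50 was the concentration that reduced Bocillin-FL binding by 50%.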

[19] = PAO1, read-out: MIC P. aeruginosa PAO1
[20] = ATCC19606, read-out: MIC A. baumannii ATCC 19606
[21] = ATCC25922, read-out: MIC E. coli 25922
[22] = P. aeruginosa PAO1, broth microdilution, read-out: MIC P. aeruginosa PAO1
[23] = ATCC19606, A. baumannii ATCC 19606, broth microdilution, read-out: MIC A. baumannii ATCC 19606
[24] = ATCC25922, E. coli ATCC 25922, broth microdilution, read-out: MIC E. coli 25922

Sequence of E. coli PBP3 (P0AD68 whole entry): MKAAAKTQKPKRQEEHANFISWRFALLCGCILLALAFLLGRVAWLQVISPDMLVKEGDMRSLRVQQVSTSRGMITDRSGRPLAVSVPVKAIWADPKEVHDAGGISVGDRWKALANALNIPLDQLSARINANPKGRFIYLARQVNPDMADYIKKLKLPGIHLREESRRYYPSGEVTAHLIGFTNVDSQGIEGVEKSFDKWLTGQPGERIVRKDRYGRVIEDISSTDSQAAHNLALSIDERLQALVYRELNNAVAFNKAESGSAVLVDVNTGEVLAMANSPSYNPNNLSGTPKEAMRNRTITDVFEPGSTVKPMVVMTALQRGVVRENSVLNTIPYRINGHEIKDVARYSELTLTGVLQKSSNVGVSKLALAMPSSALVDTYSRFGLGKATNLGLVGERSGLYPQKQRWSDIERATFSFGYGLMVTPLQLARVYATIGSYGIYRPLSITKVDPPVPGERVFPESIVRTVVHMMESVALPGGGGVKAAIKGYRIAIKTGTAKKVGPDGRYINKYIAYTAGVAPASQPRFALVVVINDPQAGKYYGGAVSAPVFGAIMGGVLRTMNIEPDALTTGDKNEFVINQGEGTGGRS

| Structure (SMILES) | MIC [1] [µg/mL] | MIC [2] [µg/mL] | MIC [3] [µg/mL] | MIC [4, 19] [µg/mL] | MIC [5, 20] [µg/mL] | MIC [6] [µg/mL] | MIC [7] [µg/mL] | MIC [8] [µg/mL] | MIC [9] [µg/mL] | MIC [10] [µg/mL] | MIC [11] [µg/mL] | MIC [12] [µg/mL] | MIC [13, 21] [µg/mL] | MIC [14] [µg/mL] | MIC [15] [µg/mL] | MIC [16] [µg/mL] | MIC [4, 22] [µg/mL] | MIC [5, 23] [µg/mL] | MIC [13, 24] [µg/mL] | EC50 [18] [µM] | also measured |
| --- | --- | --- | --- | --- | --- | --- | --- | --- | --- | --- | --- | --- | --- | --- | --- | --- | --- | --- | --- | --- | --- |
| NS(=O)(=O)c1ccc([C@@H](NC(=O)N2CCN(CCF)C(=O)C2=O)C(=O)N[C@H]2Cc3cccc(C(=O)O)c3OB2O)cc1O [Example 170, (R)-3-((R)-2-(4-(2-fluoroethyl)-2,3-dioxopiperazine-1-carboxamido)-2-(3-hydroxy-4-sulfamoylphenyl)acetamido)-2-hydroxy-3,4-dihydro-2H-benzo[e][1,2]oxaborinine-8-carboxylic acid] | 8 to 16 | 32 to 64 | 4 to 8 (≈ 6.44 to 12.9 µM) | > 128 | > 128 | 8 to 16 | 8 to 16 | < 0.25 | < 0.25 | 32 to 64 | 2 to 4 | 0.5 to 1 | 8 to 16 | 4 to 8 (≈ 6.44 to 12.9 µM) | < 0.125 | 0.25 to 0.5 (≈ 0.402 to 0.805 µM) | – | – | – | – | – |
| NCCN1CCN(C(=O)N[C@@H](C(=O)N[C@H]2Cc3cccc(C(=O)O)c3OB2O)c2ccc(O)c(O)c2Cl)C(=O)C1=O [Example 220, (R)-3-((R)-2-(4-(2-aminoethyl)-2,3-dioxopiperazine-1-carboxamido)-2-(2-chloro-3,4-dihydroxyphenyl)acetamido)-2-hydroxy-3,4-dihydro-2H-benzo[e][1,2]oxaborinine-8-carboxylic acid] | 0.5 to 1 | 0.5 to 1 | 16 to 32 (≈ 27.1 to 54.3 µM) | – | – | < 0.25 | 0.5 to 1 | < 0.25 | 0.5 to 1 | 2 to 4 | 0.5 to 1 | 0.5 to 1 | – | > 64 | 1 to 2 (≈ 1.7 to 3.39 µM) | 4 to 8 (≈ 6.78 to 13.6 µM) | 0.5 to 1 | < 0.25 | 8 to 16 | – | – |
| CS(=O)(=O)N1CCN(C(=O)NC(C(=O)N[C@H]2Cc3cccc(C(=O)O)c3OB2O)c2ccc(O)c(O)c2Cl)C1=O (stereo partly drawn) [Example 58, (3R)-3-(2-(2-chloro-3,4-dihydroxyphenyl)-2-(3-(methylsulfonyl)-2-oxoimidazolidine-1-carboxamido)acetamido)-2-hydroxy-3,4-dihydro-2H-benzo[e][1,2]oxaborinine-8-carboxylic acid] | 32 to 64 | 8 to 16 | 4 to 8 (≈ 6.7 to 13.4 µM) | 8 to 16 | 2 to 4 | < 0.25 | 8 to 16 | < 0.25 | 2 to 4 | > 128 | 8 to 16 | 8 to 16 | 32 to 64 | 4 to 8 (≈ 6.7 to 13.4 µM) | 1 to 2 (≈ 1.68 to 3.35 µM) | 4 to 8 (≈ 6.7 to 13.4 µM) | – | – | – | – | MIC [17]: 32 to 64 mg/L (≈ 53.6 to 107 µM) |
| O=C(O)c1cccc2c1OB(O)[C@@H](NC(=O)C(NC(=O)N1C[C@@H]3CCCN3C(=O)C1=O)c1ccc(O)c(O)c1Cl)C2 (stereo partly drawn) [Example 222, (3R)-3-(2-(2-chloro-3,4-dihydroxyphenyl)-2-((S)-3,4-dioxooctahydropyrrolo[1,2-a]pyrazine-2-carboxamido)acetamido)-2-hydroxy-3,4-dihydro-2H-benzo[e][1,2]oxaborinine-8-carboxylic acid] | 32 to 64 | > 128 | – | – | – | < 0.25 | 32 to 64 | < 0.25 | 32 to 64 | > 128 | 32 to 64 | > 128 | – | – | – | – | 8 to 16 | 32 to 64 | > 128 | 30 to 500 | – |
| NCCN1CCN(C(=O)N[C@H](C(=O)N[C@H]2Cc3ccc(F)c(C(=O)O)c3OB2O)c2ncc(O)cc2F)C(=O)C1=O [Example 231, (R)-3-((S)-2-(4-(2-aminoethyl)-2,3-dioxopiperazine-1-carboxamido)-2-(3-fluoro-5-hydroxypyridin-2-yl)acetamido)-7-fluoro-2-hydroxy-3,4-dihydro-2H-benzo[e][1,2]oxaborinine-8-carboxylic acid] | 32 to 64 | 32 to 64 | – | – | – | 8 to 16 | 32 to 64 | 0.5 to 1 | 2 to 4 | 32 to 64 | 8 to 16 | 8 to 16 | – | – | – | – | > 128 | > 128 | 32 to 64 | 30 to 500 | – |
